# Target: T1, eEF2 (Giardia duodenalis, UniProt A8BU59)
# T1 construct: gene GL50803_0017570; GDP in G domain (domain I)
# Assay: cryo-EM structure
# Format: binding
# T1 sequence (A8BU59 1-898): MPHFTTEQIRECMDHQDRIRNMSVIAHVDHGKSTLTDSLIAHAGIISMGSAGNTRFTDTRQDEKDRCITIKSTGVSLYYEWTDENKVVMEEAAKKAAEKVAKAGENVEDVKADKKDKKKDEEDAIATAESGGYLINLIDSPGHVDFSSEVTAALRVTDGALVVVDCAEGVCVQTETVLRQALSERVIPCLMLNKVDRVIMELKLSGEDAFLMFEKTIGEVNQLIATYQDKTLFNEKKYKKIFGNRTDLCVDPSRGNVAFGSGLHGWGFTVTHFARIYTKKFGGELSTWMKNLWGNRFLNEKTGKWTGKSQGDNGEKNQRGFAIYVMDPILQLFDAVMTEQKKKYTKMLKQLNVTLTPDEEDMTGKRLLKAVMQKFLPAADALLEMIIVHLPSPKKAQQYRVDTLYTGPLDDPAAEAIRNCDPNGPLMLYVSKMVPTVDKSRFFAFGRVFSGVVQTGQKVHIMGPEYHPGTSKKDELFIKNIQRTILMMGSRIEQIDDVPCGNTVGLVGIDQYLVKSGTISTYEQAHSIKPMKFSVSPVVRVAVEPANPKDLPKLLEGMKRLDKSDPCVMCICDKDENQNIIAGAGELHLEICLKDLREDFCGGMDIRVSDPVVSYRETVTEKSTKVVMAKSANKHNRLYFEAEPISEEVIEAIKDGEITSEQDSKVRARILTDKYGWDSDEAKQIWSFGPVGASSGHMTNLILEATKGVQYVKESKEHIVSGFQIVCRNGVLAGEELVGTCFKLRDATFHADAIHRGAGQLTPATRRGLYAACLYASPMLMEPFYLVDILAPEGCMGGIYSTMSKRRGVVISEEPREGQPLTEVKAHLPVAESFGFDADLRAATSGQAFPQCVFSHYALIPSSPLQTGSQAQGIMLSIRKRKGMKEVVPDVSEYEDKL
Structure (SMILES),"cryo-EM structure (ribosome-bound eEF2·GDP, state B, leaving phosphate of GTP hydrolysis, held by H143 of switch-II)","cryo-EM structure (ribosome-bound eEF2, state B (chimeric hybrid), G domain, P-loop (G1), G4 and G5 motifs, naturally bound, no inhibitor or analog added)"
O=P(O)(O)O [Pi],A distinct density of the ‘leaving Pi’ group can be seen,–
Nc1nc2c(ncn2[C@@H]2O[C@H](COP(=O)(O)OP(=O)(O)O)[C@@H](O)[C@H]2O)c(=O)[nH]1 [GDP],–,We found a clear density of GDP in the G domain of eEF2

# — article PMC10123126, “Insights into translocation mechanism and ribosome evolution from cryo-EM structures of translocation intermediates of Giardia intestinalis” (Nucleic Acids Research, 2023)
